Results as given in US10583137B2, “Triazole DAGLα inhibitors” (THE SCRIPPS RESEARCH INSTITUTE, priority 2015, dated 2020).

Key:
DAGLβ (hDAGLβ-FLAG) = DAGLβ (hDAGLβ-FLAG) (Homo sapiens (Human), UniProt Q8NCG7); assay: competitive ABPP, membrane proteome of transfected HEK293T cells; format: biochemical; settings: for inhibition at 0.0032 µM: read-out: DAGLβ % inh. 3.2 nM; for IC50: read-out: DAGLβ IC50
Method: (§1) Compounds 19 and 20 were tested for in vitro inhibition of DAGLα and DAGLβ as measured by competitive activity-based protein profiling (ABPP) of […] using a HT-01 probe (targets DAGLα and DAGLβ) and a FP-Rh probe (targets serine hydrolases).
(§2) Briefly, membrane proteome (1 mg/ml, 20 μL) was prepared from HEK293T cells (transiently transfected with hDAGLα-FLAG or hDAGLα-S472A-FLAG, hDAGLβ-FLAG or hDAGLβ-S443A-FLAG) as described in Example 16. The proteome was incubated at room temperature with vehicle (DMSO) or compound in 0.5 μL DMSO for 30 min. The membrane proteome sample was subsequently treated for 30 min with HT-01 probe (1 μM) or FP-Rh probe (1 μM). The reactions were quenched with 10 μL 3× Laemmli sample buffer (final concentrations: 60 mM Tris-Cl pH 6.8, 2% (w/v) SDS, 10% (v/v) glycerol, 5% (v/v) (3-mercaptoethanol, 0.01% (v/v) bromophenol blue). The samples were directly loaded and resolved on SDS page gel (10% acrylamide). The gels were scanned using a ChemiDoc MP system (Cy3 settings, 605/50 filter).
(§3) The resolved proteins were transferred from the gels to a polyvinyldifluoride membrane for Western Blotting using a Trans-Blot® Turbo (BioRad). FLAG-tagged enzymes were stained using rabbit anti-FLAG as primary antibody, and goat-anti-rabbit HRP as secondary antibody. The blot was developed in the dark using a 10 mL luminal solution, 100 μL ECL enhancer and 3 μL H2O2. Chemiluminescence was visualized using a ChemiDoc XRS (BioRad).
(§4) The percentage of DAGL activity remaining in the assayed samples was determined by measuring the integrated optical intensity of the fluorescent protein bands of the Western Blot using image lab 4.1. The relative intensity was compared to the vehicle (DMSO) treated proteins, which were set to 100%. IC50 values were determined by plotting a log(inhibitor) vs. normalized response (Variable slope) dose-response curve generated using Prism software (GraphPad).

DAGLα (hDAGLα-FLAG) = DAGLα (hDAGLα-FLAG) (Homo sapiens (Human), UniProt Q9Y4D2); assay: as above; format: biochemical; settings: for inhibition at 0.0032 µM: 3.2 nM, read-out: DAGLα % inh. 3.2 nM; for IC50: read-out: DAGLα IC50
Method: as §1, §2, §3, §4

DAGLβ (hDAGLβ-FLAG), sequence (Q8NCG7 whole entry): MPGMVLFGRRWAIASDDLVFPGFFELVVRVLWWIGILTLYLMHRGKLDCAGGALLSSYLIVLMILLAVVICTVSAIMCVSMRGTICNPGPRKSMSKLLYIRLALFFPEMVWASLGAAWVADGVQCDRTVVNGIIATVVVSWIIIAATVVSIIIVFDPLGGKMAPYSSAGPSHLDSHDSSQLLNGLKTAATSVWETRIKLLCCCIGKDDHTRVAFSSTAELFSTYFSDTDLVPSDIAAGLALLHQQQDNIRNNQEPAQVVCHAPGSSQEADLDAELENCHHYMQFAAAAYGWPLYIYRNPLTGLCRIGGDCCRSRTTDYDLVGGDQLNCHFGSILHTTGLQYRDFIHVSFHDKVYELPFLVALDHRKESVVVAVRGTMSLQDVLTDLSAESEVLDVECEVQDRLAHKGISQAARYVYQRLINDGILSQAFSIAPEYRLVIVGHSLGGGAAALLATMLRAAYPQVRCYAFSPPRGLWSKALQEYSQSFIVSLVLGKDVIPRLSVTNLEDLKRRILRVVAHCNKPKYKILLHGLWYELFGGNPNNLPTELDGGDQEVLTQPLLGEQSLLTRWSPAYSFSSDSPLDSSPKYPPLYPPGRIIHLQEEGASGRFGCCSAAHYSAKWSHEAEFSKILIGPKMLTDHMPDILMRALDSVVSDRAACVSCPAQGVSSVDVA
DAGLα (hDAGLα-FLAG), sequence (Q9Y4D2 whole entry): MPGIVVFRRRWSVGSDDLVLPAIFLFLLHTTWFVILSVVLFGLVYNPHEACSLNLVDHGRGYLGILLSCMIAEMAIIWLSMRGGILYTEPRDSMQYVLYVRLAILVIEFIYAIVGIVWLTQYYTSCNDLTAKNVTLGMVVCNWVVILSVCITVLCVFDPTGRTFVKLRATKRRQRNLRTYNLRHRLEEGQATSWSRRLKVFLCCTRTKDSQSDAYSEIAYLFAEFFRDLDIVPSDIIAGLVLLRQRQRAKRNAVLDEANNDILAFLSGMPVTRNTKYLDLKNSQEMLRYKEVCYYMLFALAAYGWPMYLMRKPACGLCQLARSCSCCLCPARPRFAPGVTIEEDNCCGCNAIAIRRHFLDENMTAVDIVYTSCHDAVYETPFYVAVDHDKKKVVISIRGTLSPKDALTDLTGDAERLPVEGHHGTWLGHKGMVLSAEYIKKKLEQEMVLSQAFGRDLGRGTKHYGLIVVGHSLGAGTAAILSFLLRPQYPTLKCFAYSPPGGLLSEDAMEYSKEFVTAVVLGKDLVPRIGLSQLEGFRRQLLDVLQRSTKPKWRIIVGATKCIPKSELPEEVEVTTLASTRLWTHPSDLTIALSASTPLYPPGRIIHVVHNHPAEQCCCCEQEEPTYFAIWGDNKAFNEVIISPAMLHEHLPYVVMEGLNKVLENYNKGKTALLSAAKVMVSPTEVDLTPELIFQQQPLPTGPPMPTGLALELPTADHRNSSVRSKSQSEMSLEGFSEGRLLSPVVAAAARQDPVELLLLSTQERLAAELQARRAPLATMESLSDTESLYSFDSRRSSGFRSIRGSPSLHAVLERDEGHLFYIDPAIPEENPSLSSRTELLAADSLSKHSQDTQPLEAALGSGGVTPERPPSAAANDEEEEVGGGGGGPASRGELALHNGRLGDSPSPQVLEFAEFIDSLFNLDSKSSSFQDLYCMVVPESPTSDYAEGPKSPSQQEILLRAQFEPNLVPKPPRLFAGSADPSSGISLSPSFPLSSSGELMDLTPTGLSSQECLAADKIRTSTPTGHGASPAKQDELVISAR

Compound | inhibition at 0.0032 µM (DAGLβ (hDAGLβ-FLAG)) [%] | inhibition at 0.0032 µM (DAGLα (hDAGLα-FLAG)) [%] | IC50 (DAGLβ (hDAGLβ-FLAG)) [nM] | IC50 (DAGLα (hDAGLα-FLAG)) [nM]
O=C(N1C[C@H](O)C=C[C@@H]1COCc1ccccc1)n1cc(-c2ccc(OC(F)(F)F)cc2)nn1 [Compound 50, ((3R,6R)-6-((Benzyloxy)methyl)-3-hydroxy-3,6-dihydropyridin-1(2H)-yl)(4-(4-(trifluoromethoxy)phenyl)-1H-1,2,3-triazol-1-yl)methanone] | 0 to 25 | 0 to 25 |  | 
O=C(N1C[C@H](O)C=C[C@@H]1COCc1ccccc1)n1ncc(-c2ccc(OC(F)(F)F)cc2)n1 [Compound 51, ((3R,6R)-6-((Benzyloxy)methyl)-3-hydroxy-3,6-dihydropyridin-1(2H)-yl)(4-(4-(trifluoromethoxy)phenyl)-2H-1,2,3-triazol-2-yl)methanone] | 0 to 25 | 0 to 25 |  | 
CCC(CC)CN(CCc1ccncc1)C(=O)n1cc(-c2ccc(OC(F)(F)F)cc2)nn1 [Compound 53, N-(2-Ethylbutyl)-N-(2-(pyridin-4-yl)ethyl)-4-(4-(trifluoromethoxy)phenyl)-1H-1,2,3-triazole-1-carboxamide] |  |  | ≤ 400 | 400 to 2000
CCC(CC)CN(CCc1ccncc1)C(=O)n1ncc(-c2ccc(OC(F)(F)F)cc2)n1 [Compound 54, N-(2-Ethylbutyl)-N-(2-(pyridin-4-yl)ethyl)-4-(4-(trifluoromethoxy)phenyl)-2H-1,2,3-triazole-2-carboxamide] |  |  | 2000 to 10000 | > 10000
O=C(N1CCCCC1Cc1ccccc1)n1cc(-c2ccc(-c3ccncc3)cc2)nn1 (stereo not shown) [Compound 59, (2-benzylpiperidin-1-yl)(4-(4-(pyridin-4-yl)phenyl)-1H-1,2,3-triazol-1-yl)methanone] |  |  | 2000 to 10000 | 400 to 2000
O=C(N1CCCCC1Cc1ccccc1)n1cc(-c2ccc(-c3cccnc3)cc2)nn1 (stereo not shown) [Compound 60, (2-benzylpiperidin-1-yl)(4-(4-(pyridin-3-yl)phenyl)-1H-1,2,3-triazol-1-yl)methanone] |  |  | 2000 to 10000 | ≤ 400
O=C(N1CCCCC1Cc1ccccc1)n1cc(-c2ccc(-c3ccccn3)cc2)nn1 (stereo not shown) [Compound 61, (2-benzylpiperidin-1-yl)(4-(4-(pyridin-2-yl)phenyl)-1H-1,2,3-triazol-1-yl)methanone] |  |  | 2000 to 10000 | 400 to 2000
COc1ccc(-c2ccc(-c3cn(C(=O)N4CCCCC4Cc4ccccc4)nn3)cc2)c(OC)c1 (stereo not shown) [Compound 62, (2-benzylpiperidin-1-yl)(4-(2′,4′-dimethoxy-[1,1′-biphenyl]-4-yl)-1H-1,2,3-triazol-1-yl)methanone] |  |  | 2000 to 10000 | ≤ 400
COc1cccc(OC)c1-c1ccc(-c2cn(C(=O)N3CCCCC3Cc3ccccc3)nn2)cc1 (stereo not shown) [Compound 63, (2-benzylpiperidin-1-yl)(4-(2′,6′-dimethoxy-[1,1′-biphenyl]-4-yl)-1H-1,2,3-triazol-1-yl)methanone] |  |  | 2000 to 10000 | ≤ 400
COc1cc(C)cc(OC)c1-c1ccc(-c2cn(C(=O)N3CCCCC3Cc3ccccc3)nn2)cc1 (stereo not shown) [Compound 64, (2-benzylpiperidin-1-yl)(4-(2′,6′-dimethoxy-4′-methyl-[1,1′-biphenyl]-4-yl)-1H-1,2,3-triazol-1-yl)methanone] |  |  | 2000 to 10000 | ≤ 400
COc1cnccc1-c1ccc(-c2cn(C(=O)N3CCCCC3Cc3ccccc3)nn2)cc1 (stereo not shown) [Compound 65, (2-benzylpiperidin-1-yl)(4-(4-(3-methoxypyridin-4-yl)phenyl)-1H-1,2,3-triazol-1-yl)methanone] |  |  | 2000 to 10000 | 400 to 2000
O=C(N1CCCCC1Cc1ccncc1)n1cc(-c2ccc(-c3ccccc3)cc2)nn1 (stereo not shown) [Compound 66, (4-([1,1′-biphenyl]-4-yl)-1H-1,2,3-triazol-1-yl)(2-(pyridin-4-ylmethyl)piperidin-1-yl)methanone] |  |  | ≤ 400 | ≤ 400
COc1cc(OC)c(-c2ccc(-c3cn(C(=O)N4CCCCC4Cc4ccncc4)nn3)cc2)c(OC)c1 (stereo not shown) [Compound 67, (2-(pyridin-4-ylmethyl)piperidin-1-yl)(4-(2′,4′,6′-trimethoxy-[1,1′-biphenyl]-4-yl)-1H-1,2,3-triazol-1-yl)methanone] |  |  | 2000 to 10000 | ≤ 400
COc1cc(C)cc(OC)c1-c1ccc(-c2cn(C(=O)N3CCCCC3Cc3ccncc3)nn2)cc1 (stereo not shown) [Compound 68, (4-(2′,6′-dimethoxy-4′-methyl-[1,1′-biphenyl]-4-yl)-1H-1,2,3-triazol-1-yl)(2-(pyridin-4-ylmethyl)piperidin-1-yl)methanone] |  |  | 2000 to 10000 | ≤ 400
COc1cc(Cl)cc(OC)c1-c1ccc(-c2cn(C(=O)N3CCCCC3Cc3ccncc3)nn2)cc1 (stereo not shown) [Compound 69, (4-(4′-chloro-2′,6′-dimethoxy-[1,1′-biphenyl]-4-yl)-1H-1,2,3-triazol-1-yl)(2-(pyridin-4-ylmethyl)piperidin-1-yl)methanone] |  |  | 2000 to 10000 | ≤ 400
COc1cncc(OC)c1-c1ccc(-c2cnn(C(=O)N3CCCCC3Cc3ccccc3)n2)cc1 (stereo not shown) [Compound 70, (2-benzylpiperidin-1-yl)(4-(4-(3,5-dimethoxypyridin-4-yl)phenyl)-2H-1,2,3-triazol-2-yl)methanone] |  |  | > 10000 | 2000 to 10000
Cc1cncc(C)c1-c1ccc(-c2cn(C(=O)N3CCCCC3Cc3ccccc3)nn2)cc1 (stereo not shown) [Compound 71, (2-benzylpiperidin-1-yl)(4-(4-(3,5-dimethylpyridin-4-yl)phenyl)-1H-1,2,3-triazol-1-yl)methanone] |  |  | 400 to 2000 | ≤ 400
O=C(N1CCCCC1Cc1ccccc1)n1cc(-c2ccc(-c3c(F)cncc3F)cc2)nn1 (stereo not shown) [Compound 72, (2-benzylpiperidin-1-yl)(4-(4-(3,5-difluoropyridin-4-yl)phenyl)-1H-1,2,3-triazol-1-yl)methanone] |  |  | 400 to 2000 | 400 to 2000
O=C(N1CCCCC1Cc1ccccc1)n1cc(-c2ccc(-c3c(Cl)cncc3Cl)cc2)nn1 (stereo not shown) [Compound 73, (2-benzylpiperidin-1-yl)(4-(4-(3,5-dichloropyridin-4-yl)phenyl)-1H-1,2,3-triazol-1-yl)methanone] |  |  | ≤ 400 | ≤ 400
COc1cc(OC)c(-c2ccc(-c3cn(C(=O)N4CCCCC4Cc4ccccc4)nn3)cn2)c(OC)c1 (stereo not shown) [Compound 74, (2-benzylpiperidin-1-yl)(4-(6-(2,4,6-trimethoxyphenyl)pyridin-3-yl)-1H-1,2,3-triazol-1-yl)methanone] |  |  | 2000 to 10000 | ≤ 400
CN(C)C(=O)c1ccc(-c2ccc(-c3cn(C(=O)N4CCCCC4Cc4ccccc4)nn3)cc2)cc1 (stereo not shown) [Compound 75, 4′-(1-(2-benzylpiperidine-1-carbonyl)-1H-1,2,3-triazol-4-yl)-N,N-dimethyl-[1,1′-biphenyl]-4-carboxamide] |  |  | > 10000 | 2000 to 10000
CN(C)C(=O)c1cccc(-c2ccc(-c3cn(C(=O)N4CCCCC4Cc4ccccc4)nn3)cc2)c1 (stereo not shown) [Compound 76, 4′-(1-(2-benzylpiperidine-1-carbonyl)-1H-1,2,3-triazol-4-yl)-N,N-dimethyl-[1,1′-biphenyl]-3-carboxamide] |  |  | > 10000 | 400 to 2000
CN(C)C(=O)c1ccccc1-c1ccc(-c2cn(C(=O)N3CCCCC3Cc3ccccc3)nn2)cc1 (stereo not shown) [Compound 77, 4′-(1-(2-benzylpiperidine-1-carbonyl)-1H-1,2,3-triazol-4-yl)-N,N-dimethyl-[1,1′-biphenyl]-2-carboxamide] |  |  | 400 to 2000 | ≤ 400
